Experiments:
[1] = target: T1, TMEM173 (Homo sapiens, UniProt Q86WV6, G230A/H232R/R293Q/R71H); experiment: ISRE-luciferase assay in THP-1 Lucia ISG cells; assay type: cell-based; conditions: 24 h
T1 construct: endogenous in cells; host or cells: THP-1 Lucia ISG cells
Protocol: FIG. 12A is a pie chart showing the fraction of protein targets of active compounds with available crystal structures containing the corresponding liganded cysteine residues. FIG. 12B is a computer-generated model of BPK-21 and BPK-25 interactions with C91 of stimulator of interferon genes protein (STING, or TMEM173). FIG. 12C is a graph of IRF response of THP1-Lucia™ ISG cells. THP-1 Lucia ISG cells were treated with DMSO or BPK-25 in the presence of viral dsDNA (2 μg/mL) for 24 h and the levels of IRF-induced Lucia luciferase were determined using QUANTI-Luc™. Cell viability was measured using CellTiter-Glo™ assay. Luminescence signals for test samples were normalized to DMSO-treated samples and reported as relative light units (RLU)±SEM; n=3/group. […] Relative expression of IL-6, IL-1β, and IP10 (CXCL10) genes was measured by qPCR and normalized to actin. […] GFP-positive cells were further analyzed for CD25 and CD69 expression levels by measuring mean fluorescence intensity of the PE- (PE-CD25) and APC-channels (APC-CD69). […]
THP-1 Lucia ISG cells were resuspended in low-serum growth media (2% FBS) at a density of 5×10^5 cells/mL and treated with BPK-25 or vehicle (DMSO) in the presence of viral dsDNA (2 μg/mL). […] For each cell type and assay, luminescence signals for test article samples were normalized to vehicle-treated samples and reported as relative light units (RLU).

[2] = system: NuRD complex member mRNA; experiment: mRNA expression of NuRD complex members (RNAseq); assay type: cell-based, human
Protocol: FIG. 7B is a scatter plot representation of protein abundance changes caused by BPK-25 (10 μM, 24 h) in two independent replicate experiments, with decreases in NuRD complex components highlighted in red. FIG. 7C is a heatmap of top proteins with decreased abundance in BPK-25-treated T cells showing that the subset of these proteins in the NuRD complex (asterisks) were largely unaltered by other active compounds and blocked in their degradation by co-treatment with the proteasome inhibitor MG132. […] FIG. 7E is a bar graph […] showing time-dependent reductions in NuRD complex members in human T cells treated with BPK-25 (10 μM). Left, representative western blots. Right, quantification of changes in protein. […] FIG. 7G is a heat map showing the changes in cysteine reactivity for NuRD complex members in human T cells treated with BPK-25 and other active compounds. […]
RNA quality was assessed using TapeStation 4200 and RNA-Seq libraries were prepared using the TruSeq stranded mRNA Sample Preparation Kit v2 according to Illumina protocols. Multiplexed libraries were validated using TapeStation 4200, normalized, pooled and quantified by qPCR for sequencing. […]
Sequenced reads were quality-tested using FASTQC Andrews S. (2010). […] Mapping was carried out using default parameters (up to 10 mismatches per read, and up to 9 multi-mapping locations per read). […]

T1 sequence (Q86WV6 whole entry R71H/G230A/H232R/R293Q): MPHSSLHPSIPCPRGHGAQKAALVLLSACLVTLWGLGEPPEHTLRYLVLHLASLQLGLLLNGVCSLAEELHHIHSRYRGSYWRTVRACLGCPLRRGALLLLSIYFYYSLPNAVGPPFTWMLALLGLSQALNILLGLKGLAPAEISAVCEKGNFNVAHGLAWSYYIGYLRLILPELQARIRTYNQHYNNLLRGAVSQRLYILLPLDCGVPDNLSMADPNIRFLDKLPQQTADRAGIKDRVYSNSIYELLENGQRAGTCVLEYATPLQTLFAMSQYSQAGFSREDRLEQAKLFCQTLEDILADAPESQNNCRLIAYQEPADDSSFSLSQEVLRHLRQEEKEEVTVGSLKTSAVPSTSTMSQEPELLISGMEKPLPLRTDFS

C=CC(=O)N(Cc1cccc(Cl)n1)c1ccc(C(=O)Nc2ccccc2)nc1 [BPK-25]
TMEM173 activation in human monocyte cell line THP1 [1]: inhibited TMEM173 activation
mRNA expression for NuRD complex members [2]: not accompanied by corresponding changes in mRNA expression
